The subject of one experiment is cholesterol absorption. Put plainly: Inhibition of cholesterol absorption in rats fed 1% cholesterol:0.5% cholic acid diet. The format is in vivo, male Sprague-Dawley rats. As to conditions: po, 336 h, rat, 2 weeks; for response vs control in vivo at 0.03 %: dose .03% of the diet; for response vs control in vivo at 0.01 %: dose .01% of the diet. In outline: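 Male Sprague-Dawley rats (150-170 g) fed 1% cholesterol:0.5% cholic acid diet for 2 weeks with compound at 0.001, 0.003, 0.01 or 0.03% of diet. Serum cholesterol measured enzymatically; liver cholesterol from saponified large-lobe sample after petroleum ether extraction. Liver and serum sterol expressed as percent of untreated controls.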

Experiment [1] has as its target T1, fatty acyl CoA: cholesterol acyl transferase (ACAT) (Rattus norvegicus, UniProt O70536).
T1 construct: The supernatant, containing the microsomal fraction, served as the source of the cholesterol-esterifying enzyme; from tissue; host or cells: rat adrenals, supernatant of 1,000 x g centrifugation containing the microsomal fraction
T1 sequence (O70536 1-545): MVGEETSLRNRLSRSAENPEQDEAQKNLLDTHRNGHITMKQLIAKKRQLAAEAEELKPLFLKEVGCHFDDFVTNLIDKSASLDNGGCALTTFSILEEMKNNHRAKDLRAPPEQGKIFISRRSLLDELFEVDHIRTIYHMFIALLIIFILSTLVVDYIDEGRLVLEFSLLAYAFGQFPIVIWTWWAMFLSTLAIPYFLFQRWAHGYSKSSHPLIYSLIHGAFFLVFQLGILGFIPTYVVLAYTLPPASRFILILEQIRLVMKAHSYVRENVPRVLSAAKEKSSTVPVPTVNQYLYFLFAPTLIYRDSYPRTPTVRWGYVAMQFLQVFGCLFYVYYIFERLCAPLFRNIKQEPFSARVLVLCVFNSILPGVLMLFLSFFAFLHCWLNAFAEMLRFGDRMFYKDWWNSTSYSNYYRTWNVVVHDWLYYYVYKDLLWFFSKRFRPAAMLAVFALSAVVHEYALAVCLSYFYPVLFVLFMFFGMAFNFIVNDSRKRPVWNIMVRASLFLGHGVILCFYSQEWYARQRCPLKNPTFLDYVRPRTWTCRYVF
The experiment is described as follows: Inhibition of fatty acyl CoA:cholesterol acyl transferase (ACAT), rat adrenal enzyme. Particulars: for pIC50: several concentrations. In kind it is biochemical. The method in brief: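 Enzyme source was the microsomal supernatant of rat adrenal homogenate (0.2M potassium phosphate, pH 7.4) with BSA, preincubated with compound (5.2 μg/ml final for single-point) for 10 min at 37° C. Then [14C]oleoyl CoA added, 10 min at 37° C. TLC-separated cholesteryl ester was counted; percent inhibition versus control, IC50 from several concentrations.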

The mark [2] stands for this setting: read-out: LS (liver sterol), percentage of control values.
[3] abbreviates: read-out: SS (serum sterol), percentage of control values.
Where [4] appears, read: rat adrenal ACAT, final concentration 5.2 μg/ml, read-out: % Inhibition.

pIC50: −log10 of the molar value. Read-outs that look alike come from different tables or passages of the source.

For `CCCCN(Cc1ccccc1)C(=O)Nc1cc(C)cc(C)c1` [1-Benzyl-1-( -n-butyl)-3-(3,5-dimethylphenyl)urea], the response vs control in vivo at 0.03 % in the experiment with cholesterol absorption (setting [2]) was 75%; with cholesterol absorption (setting [3]), 93%. The inhibition at 5.2 µg/mL in experiment [1] (setting [4]) came to 94.2%.

Consider `CCCCCCCN(Cc1cccs1)C(=O)Nc1cc(C)c(C)cc1C` [1-Heptyl-1-(2-thienylmethyl)-3-(2,4,5-trimethylphenyl)urea], for which the response vs control in vivo at 0.03 % came to 25% in the experiment with cholesterol absorption (setting [2]) and 54% in the experiment on cholesterol absorption (setting [3]). Also, at 5.2 µg/mL the inhibition in experiment [1] was 90%.

With `Cc1cc(NC(=O)N(CCC(C)(C)C)Cc2ccccc2)c(C)cc1Cl` [1-(3,3-Dimethylbutyl)-1-(benzyl)-3-(4-chloro-2,5-dimethylphenyl)urea], the response vs control in vivo at 0.03 % worked out at 30% in the experiment on cholesterol absorption (setting [2]) and 55% in the experiment with cholesterol absorption (setting [3]). The compound further registered an inhibition at 5.2 µg/mL in experiment [1] of 90%.

Consider `Cc1ccc(CCN(Cc2cccc(Cl)c2)C(=O)Nc2ccc(C)cc2C)cc1` [1-[2-(4-Methylphenyl)ethyl]-1-(3-chlorobenzyl)-3-(2,4-dimethylphenyl)urea], for which the response vs control in vivo at 0.03 % in the experiment with cholesterol absorption (setting [2]) stood at 20%; in the experiment with cholesterol absorption (setting [3]) it was 50%. In experiment [1] (setting [4]), the inhibition at 5.2 µg/mL came out at 67.6%.

With `CCCCOc1ccc(CN(Cc2ccccc2)C(=O)Nc2ccc(Cl)cc2C(F)(F)F)cc1` [1-Benzyl-1-(4-n-butoxybenzyl)-3-(2-trifluoromethyl-4-chlorophenyl)urea], the response vs control in vivo at 0.03 % in the experiment with cholesterol absorption (setting [2]) amounted to 31%; in the experiment on cholesterol absorption (setting [3]) it was 58%. Moreover, the inhibition at 5.2 µg/mL in experiment [1] (setting [4]) worked out at 85%.

As to `CCCCCCCN(Cc1ccc(CCCC)cc1)C(=O)Nc1ccc(F)cc1F` [1-[(4-Butylphenyl)methyl]-1-(n-heptyl)-3-[2,4-difluorophenyl]urea], the figures for the response vs control in vivo at 0.03 % in the experiment with cholesterol absorption (setting [2]) and in the experiment with cholesterol absorption (setting [3]) were 19% and 35%, respectively. In experiment [1], this compound showed an inhibition at 5.2 µg/mL of 90%.

`CCCCCCCN(Cc1ccco1)C(=O)Nc1c(Cl)cc(Cl)cc1Cl` [1-(2-Furanylmethyl)-1-heptyl-3-(2,4,6-trichlorophenyl)urea]: the response vs control in vivo at 0.03 % with cholesterol absorption (setting [2]) amounted to 34%; in the experiment with cholesterol absorption (setting [3]) it was 37%. Moreover, the inhibition at 5.2 µg/mL in experiment [1] (setting [4]) is 96.1%.

On to `CCCCOc1ccc(CN(CCC(C)(C)C)C(=O)Nc2ccc(Cl)cc2C)cc1` [1-(3,3-Dimethylbutyl)-1-[4-(n-butoxy)benzyl]-3-(4-chloro-2-methylphenyl)urea], for which the response vs control in vivo at 0.03 % was determined as 22% in the experiment on cholesterol absorption (setting [2]) and 61% in the experiment with cholesterol absorption (setting [3]). In experiment [1], this compound came in with an inhibition at 5.2 µg/mL of 90%.

With `CCCCc1ccc(CN(Cc2ccccc2)C(=O)Nc2ccc(CCCC)cc2)cc1` [1-Benzyl-1-(4-n-butylbenzyl)-3-(4-n-butylphenyl)urea], the response vs control in vivo at 0.03 % worked out at 61% with cholesterol absorption (setting [2]) and 53% with cholesterol absorption (setting [3]). Besides, the inhibition at 5.2 µg/mL in experiment [1] (setting [4]) turned out to be 92%.

For the compound `O=C(Nc1c(Cl)cc(Cl)cc1Cl)N(Cc1ccccc1)C(Cc1ccccc1)c1ccc(OCc2ccccc2)cc1` (stereo not drawn) [1-Benzyl-1-[2-phenyl-1-(4-benzyloxyphenyl)ethyl]-3-(2,4,6-trichlorophenyl)urea], the response vs control in vivo at 0.03 % with cholesterol absorption (setting [2]) is 64%; in the experiment with cholesterol absorption (setting [3]) it was 95%. For the same compound, the inhibition at 5.2 µg/mL in experiment [1] (setting [4]) turned out to be 95%.

`CCCCc1ccc(CN(CCOCCO)C(=O)Nc2cc(C)c(C)cc2C)cc1` [1-[(4-Butylphenyl)methyl]-1-[2-(2-hydroxyethoxy)ethyl]-3-(2,4,5-trimethylphenyl)urea]: the values for the response vs control in vivo at 0.03 % in the experiment with cholesterol absorption (setting [2]) and in the experiment on cholesterol absorption (setting [3]) were 76% and 100%, respectively. Also, the inhibition at 5.2 µg/mL in experiment [1] (setting [4]) is 85.9%.

For `CCCCCCCN(Cc1ccc(C(C)C)cc1)C(=O)Nc1ccc(Cl)cc1C` [1-(n-Heptyl)-1-[4-(isopropyl)benzyl]-3-(4-chloro-2-methylphenyl)urea], the response vs control in vivo at 0.01 % worked out at 75% in the experiment with cholesterol absorption (setting [2]) and 60% in the experiment with cholesterol absorption (setting [3]). This compound gave a pIC50 in experiment [1] (rat adrenal ACAT) of 5.76.

With `CCCCCCCN(Cc1ccc(CC(C)C)cc1)C(=O)Nc1ccc(Cl)cc1C` [1-(n-Heptyl)-1-[4-(isobutyl)benzyl]-3-(4-chloro-2-methylphenyl)urea], the response vs control in vivo at 0.01 % with cholesterol absorption (setting [2]) stood at 56%; with cholesterol absorption (setting [3]), 62%. Besides, in experiment [1] (rat adrenal ACAT), the pIC50 was 5.74.

On to `Cc1cc(Cl)ccc1NC(=O)N(CCC(C)(C)C)Cc1ccccc1` [1-(3,3-Dimethylbutyl)-1-benzyl-3-(4-chloro-2-methylphenyl)urea], for which the response vs control in vivo at 0.03 % with cholesterol absorption (setting [2]) amounted to 51%; in the experiment on cholesterol absorption (setting [3]) it was 64%. In experiment [1], this compound displayed an inhibition at 5.2 µg/mL of 90%.

For `CCCCCCCN(Cc1ccc(CCCC)cc1)C(=O)Nc1ccc(C)cc1C` [1-(n-Heptyl)-1-(4-n-butylbenzyl)-3-(2,4-dimethylphenyl)urea], the response vs control in vivo at 0.03 % in the experiment on cholesterol absorption (setting [2]) amounted to 14%; in the experiment with cholesterol absorption (setting [3]), 46%. The inhibition at 5.2 µg/mL in experiment [1] (setting [4]) stood at 94.8%.

`CCCCc1ccc(CN(CCC(C)(C)C)C(=O)Nc2c(C)cc(Cl)cc2C)cc1` [1-(3,3-Dimethylbutyl)-1-[4-(n-butyl)benzyl]-3-(4-chloro-2,6-dimethylphenyl)urea]: the figures for the response vs control in vivo at 0.03 % in the experiment on cholesterol absorption (setting [2]) and in the experiment on cholesterol absorption (setting [3]) were 12% and 28%, respectively. Further, in experiment [1], the inhibition at 5.2 µg/mL came out at 90%.

In the case of `CCCCCOc1ccc(CN(Cc2ccc(CCCCC)cc2)C(=O)Nc2ccc(F)cc2F)cc1` [1-(4-n-Pentylbenzyl)-1-(4-n-pentyloxybenzyl)-3-(2,4-difluorophenyl)urea], the response vs control in vivo at 0.03 % with cholesterol absorption (setting [2]) came out at 67%; in the experiment with cholesterol absorption (setting [3]) it was 55%. This compound registered an inhibition at 5.2 µg/mL in experiment [1] of 90%.

Take `CCCCCCCN(Cc1ccc(CCCC)cc1)C(=O)Nc1cc(C)c(C)cc1C` [1-(n-Heptyl)-1-(4-n-butylbenzyl)-3-(2,4,5-trimethylphenyl)urea]: the response vs control in vivo at 0.03 % with cholesterol absorption (setting [2]) was 10%; in the experiment with cholesterol absorption (setting [3]) it was 33%. Besides, in experiment [1] (setting [4]), the inhibition at 5.2 µg/mL stood at 95.3%.

Regarding `CCCCc1ccc(CN(CCCCCCC#N)C(=O)Nc2ccc(Cl)cc2C)cc1` [1-[(4-Butylphenyl)methyl]-3-(4-chloro-2-methylphenyl)-1-(6-cyanohexyl)urea], the response vs control in vivo at 0.03 % in the experiment with cholesterol absorption (setting [2]) is 50%; in the experiment on cholesterol absorption (setting [3]), 48%. In experiment [1], this compound displayed an inhibition at 5.2 µg/mL of 90%.

Consider `Cc1cc(Cl)cc(C)c1NC(=O)N(CCC(C)C)Cc1ccc(C(C)C)cc1` [1-(Isopentyl)-1-[4-(isopropyl)benzyl]-3-(4-chloro-2,6-dimethylphenyl)urea], for which the response vs control in vivo at 0.03 % in the experiment on cholesterol absorption (setting [2]) and in the experiment with cholesterol absorption (setting [3]) was 23% each time. Moreover, the pIC50 in experiment [1] (rat adrenal ACAT) was 6.27.

Consider `CCCCCCCN(Cc1ccc(OCCCC)cc1)C(=O)Nc1ccc(C)cc1C` [1-(n-Heptyl)-1-(4-butyloxybenzyl)-3-(2,4-dimethylphenyl)urea], for which the response vs control in vivo at 0.03 % in the experiment with cholesterol absorption (setting [2]) was 22%; in the experiment on cholesterol absorption (setting [3]) it was 26%. Moreover, the inhibition at 5.2 µg/mL in experiment [1] (setting [4]) amounted to 94.6%.

With `CC(C)(C)CCN(Cc1cccs1)C(=O)Nc1ccc(F)cc1F` [3-(2,4-Difluorophenyl)-1-(3,3-dimethylbutyl)-1-(2-thienylmethyl)urea], the response vs control in vivo at 0.03 % in the experiment with cholesterol absorption (setting [2]) was found to be 73%; with cholesterol absorption (setting [3]) it was 66%. In experiment [1], this compound showed an inhibition at 5.2 µg/mL of 90%.

For `CCCCCCCN(Cc1ccc(CCCC)cc1)C(=O)Nc1ccc(Cl)cc1C(F)(F)F` [1-(n-Heptyl)-1-(4-n-butylbenzyl)-3-(2-trifluoromethyl-4-chlorophenyl)urea], the figures for the response vs control in vivo at 0.03 % in the experiment with cholesterol absorption (setting [2]) and with cholesterol absorption (setting [3]) were 47% and 63%, respectively. Also, the inhibition at 5.2 µg/mL in experiment [1] came to 90%.

By inhibition is commonly meant how much of the control response was suppressed. As usually defined, the pIC50 is −log10 of the IC50, conventionally taken in molar units.

These data come from patent US4623662A, “Antiatherosclerotic ureas and thioureas” (American Cyanamid Company, priority 1985, dated 1986).
